# Measurements taken from ChEMBL document CHEMBL1201862, “PubChem BioAssay data set” (2004).
#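 48-hour exposure; five concentrations; linearly interpolated endpoints. Here, GI50 denotes the concentration required for 50% inhibition of growth.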 Calls of active or inactive are those of the source. No stated cut-off is given here; in the data, active = GI50 up to about 1.1 µM and inactive = higher.
# Legend:
# Test in all cases: NCI tumour cell line growth inhibition, 48 h
# LOX IMVI = system: LOX IMVI
# NCI-H226 = system: NCI-H226
# SF-295 = system: SF-295
# MCF7 = system: MCF7
# HOP-62 = system: HOP-62
# PC-3 = system: PC-3
# HOP-92 = system: HOP-92
# A549 = system: A549
# COLO 205 = system: COLO 205
# NCI-H23 = system: NCI-H23
# MDA-MB-435 = system: MDA-MB-435
# U-251 = system: U-251
# RPMI-8226 = system: RPMI-8226
# HCT-15 = system: HCT-15
# SNB-75 = system: SNB-75
# SK-MEL-5 = system: SK-MEL-5
# NCI-H460 = system: NCI-H460
# SF-539 = system: SF-539
# 786-0 = system: 786-0
# OVCAR-8 = system: OVCAR-8
# MDA-MB-231 = system: MDA-MB-231
# SNB-19 = system: SNB-19
# UO-31 = system: UO-31
# OVCAR-3 = system: OVCAR-3
# DU-145 = system: DU-145
# SN12C = system: SN12C
# A498 = system: A498
# SF-268 = system: SF-268
# BT-549 = system: BT-549
# UACC-257 = system: UACC-257
# HT-29 = system: HT-29
# HCC 2998 = system: HCC 2998
# OVCAR-4 = system: OVCAR-4
# SK-OV-3 = system: SK-OV-3
# Hs-578T = system: Hs-578T
# HL-60 = system: HL-60
# NCI/ADR-RES = system: NCI/ADR-RES
# K562 = system: K562
# IGROV-1 = system: IGROV-1
# NCI-H522 = system: NCI-H522
# MDA-N = system: MDA-N
# Malme-3M = system: Malme-3M
# SW-620 = system: SW-620
# UACC-62 = system: UACC-62
# SK-MEL-2 = system: SK-MEL-2
# CAKI-1 = system: CAKI-1
# MOLT-4 = system: MOLT-4
# OVCAR-5 = system: OVCAR-5
# HCT-116 = system: HCT-116
# EKVX = system: EKVX
# T47D = system: T47D
# ACHN = system: ACHN
# RXF 393 = system: RXF 393
# TK-10 = system: TK-10
# SK-MEL-28 = system: SK-MEL-28
# M14 = system: M14
# SR = system: SR
# KM12 = system: KM12
# CCRF-CEM = system: CCRF-CEM
compound,measurement,setting,value
Cc1ccc(N(C=O)c2c([N+](=O)[O-])cc([N+](=O)[O-])c3c2=[N+]([O-])CN=3)cc1,GI50,LOX IMVI,21.9 µM (inactive)
same,GI50,NCI-H226,> 100 µM (inactive)
same,GI50,SF-295,65.5 µM (inactive)
same,GI50,MCF7,21.2 µM (inactive)
same,GI50,HOP-62,60 µM (inactive)
same,GI50,PC-3,20.4 µM (inactive)
same,GI50,HOP-92,16.2 µM (inactive)
same,GI50,A549,> 100 µM (inactive)
same,GI50,COLO 205,28.5 µM (inactive)
same,GI50,NCI-H23,23.5 µM (inactive)
same,GI50,MDA-MB-435,30.8 µM (inactive)
same,GI50,U-251,28.4 µM (inactive)
same,GI50,RPMI-8226,20.7 µM (inactive)
same,GI50,HCT-15,15.4 µM
same,GI50,SNB-75,33.7 µM (inactive)
same,GI50,SK-MEL-5,13.5 µM (inactive)
same,GI50,NCI-H460,> 100 µM (inactive)
same,GI50,SF-539,32 µM (inactive)
same,GI50,786-0,27 µM (inactive)
same,GI50,OVCAR-8,28.5 µM (inactive)
same,GI50,MDA-MB-231,18.5 µM (inactive)
same,GI50,SNB-19,66.8 µM (inactive)
same,GI50,UO-31,29.3 µM (inactive)
same,GI50,OVCAR-3,24.2 µM (inactive)
same,GI50,DU-145,27.2 µM (inactive)
same,GI50,SN12C,31.6 µM (inactive)
same,GI50,A498,39.6 µM (inactive)
same,GI50,SF-268,36 µM (inactive)
same,GI50,BT-549,18.7 µM (inactive)
same,GI50,UACC-257,21 µM (inactive)
same,GI50,HT-29,49 µM (inactive)
same,GI50,HCC 2998,14 µM (inactive)
same,GI50,OVCAR-4,30.9 µM (inactive)
same,GI50,SK-OV-3,> 100 µM (inactive)
same,GI50,Hs-578T,29 µM (inactive)
same,GI50,HL-60,23 µM (inactive)
same,GI50,NCI/ADR-RES,30.7 µM (inactive)
same,GI50,K562,27.3 µM (inactive)
same,GI50,IGROV-1,38.8 µM (inactive)
same,GI50,NCI-H522,19.2 µM (inactive)
same,GI50,MDA-N,27.5 µM (inactive)
same,GI50,Malme-3M,20.3 µM (inactive)
same,GI50,SW-620,45.4 µM (inactive)
same,GI50,UACC-62,11.9 µM (inactive)
same,GI50,SK-MEL-2,17.7 µM (inactive)
same,GI50,CAKI-1,32.3 µM (inactive)
same,GI50,MOLT-4,23.9 µM (inactive)
same,GI50,OVCAR-5,> 100 µM (inactive)
same,GI50,HCT-116,24.8 µM (inactive)
same,GI50,EKVX,> 100 µM (inactive)
same,GI50,T47D,17.5 µM (inactive)
same,GI50,ACHN,24.8 µM (inactive)
same,GI50,RXF 393,20.7 µM (inactive)
same,GI50,TK-10,35.9 µM (inactive)
same,GI50,SK-MEL-28,49.4 µM (inactive)
same,GI50,M14,20.8 µM (inactive)
same,GI50,SR,24.9 µM (inactive)
same,GI50,KM12,43.8 µM (inactive)
N#Cc1cnc(N)nc1NCC1(CO)CC(CCc2ccccc2)C1 (stereo unspecified),GI50,LOX IMVI,5.26 µM (inactive)
same,GI50,NCI-H226,> 100 µM (inactive)
same,GI50,SF-295,18.5 µM (inactive)
same,GI50,MCF7,49.1 µM (inactive)
same,GI50,HOP-62,58.1 µM (inactive)
same,GI50,PC-3,> 91.2 µM (inactive)
same,GI50,HOP-92,19.7 µM (inactive)
same,GI50,A549,14.3 µM (inactive)
same,GI50,COLO 205,> 100 µM (inactive)
same,GI50,NCI-H23,63.4 µM (inactive)
same,GI50,MDA-MB-435,25.2 µM (inactive)
same,GI50,U-251,> 59.2 µM (inactive)
same,GI50,RPMI-8226,> 100 µM (inactive)
same,GI50,HCT-15,> 100 µM
same,GI50,SNB-75,20.8 µM (inactive)
same,GI50,SK-MEL-5,1.72 µM (inactive)
same,GI50,NCI-H460,> 100 µM (inactive)
same,GI50,SF-539,> 100 µM (inactive)
same,GI50,786-0,> 85.5 µM (inactive)
same,GI50,OVCAR-8,47.3 µM (inactive)
same,GI50,MDA-MB-231,56.2 µM (inactive)
same,GI50,SNB-19,55.3 µM (inactive)
same,GI50,UO-31,20.3 µM (inactive)
same,GI50,OVCAR-3,> 90.4 µM (inactive)
same,GI50,DU-145,> 100 µM (inactive)
same,GI50,SN12C,> 100 µM (inactive)
same,GI50,A498,29 µM (inactive)
same,GI50,SF-268,> 55.6 µM (inactive)
same,GI50,BT-549,> 100 µM (inactive)
same,GI50,UACC-257,42.1 µM (inactive)
same,GI50,HT-29,> 100 µM (inactive)
same,GI50,HCC 2998,> 100 µM (inactive)
same,GI50,OVCAR-4,> 100 µM (inactive)
same,GI50,SK-OV-3,27.1 µM (inactive)
same,GI50,CCRF-CEM,> 100 µM (inactive)
same,GI50,Hs-578T,> 70.8 µM (inactive)
same,GI50,NCI/ADR-RES,9.95 µM (inactive)
same,GI50,K562,2.51 µM (inactive)
same,GI50,IGROV-1,55 µM (inactive)
same,GI50,NCI-H522,> 55.2 µM (inactive)
same,GI50,MDA-N,29.9 µM (inactive)
same,GI50,Malme-3M,> 100 µM (inactive)
same,GI50,SW-620,> 100 µM (inactive)
same,GI50,UACC-62,> 100 µM (inactive)
same,GI50,SK-MEL-2,> 100 µM (inactive)
same,GI50,CAKI-1,> 100 µM (inactive)
same,GI50,MOLT-4,3.15 µM (inactive)
same,GI50,OVCAR-5,> 100 µM (inactive)
same,GI50,HCT-116,12 µM (inactive)
same,GI50,EKVX,35.2 µM (inactive)
same,GI50,T47D,0.301 µM (active)
same,GI50,ACHN,> 33.5 µM (inactive)
same,GI50,RXF 393,49 µM (inactive)
same,GI50,TK-10,> 61.5 µM (inactive)
same,GI50,SK-MEL-28,> 100 µM (inactive)
same,GI50,M14,> 100 µM (inactive)
same,GI50,SR,20.1 µM (inactive)
same,GI50,KM12,> 85.5 µM (inactive)
CCOC(=O)c1nc2cc(C(F)(F)F)ccc2nc1Oc1ccc(F)cc1,GI50,LOX IMVI,> 100 µM (inactive)
same,GI50,NCI-H226,> 100 µM (inactive)
same,GI50,SF-295,> 100 µM (inactive)
same,GI50,MCF7,> 100 µM (inactive)
same,GI50,PC-3,> 100 µM (inactive)
same,GI50,HOP-92,87.3 µM (inactive)
same,GI50,A549,> 100 µM (inactive)
same,GI50,COLO 205,> 100 µM (inactive)
same,GI50,MDA-MB-435,> 100 µM (inactive)
same,GI50,U-251,> 100 µM (inactive)
same,GI50,RPMI-8226,> 100 µM (inactive)
same,GI50,HCT-15,> 100 µM
same,GI50,SNB-75,> 100 µM (inactive)
same,GI50,SK-MEL-5,> 100 µM (inactive)
same,GI50,NCI-H460,> 100 µM (inactive)
same,GI50,SF-539,> 100 µM (inactive)
same,GI50,786-0,> 100 µM (inactive)
same,GI50,OVCAR-8,> 100 µM (inactive)
same,GI50,MDA-MB-231,> 100 µM (inactive)
same,GI50,SNB-19,> 100 µM (inactive)
same,GI50,UO-31,61.5 µM (inactive)
same,GI50,OVCAR-3,> 100 µM (inactive)
same,GI50,DU-145,> 100 µM (inactive)
same,GI50,SN12C,> 100 µM (inactive)
same,GI50,A498,> 100 µM (inactive)
same,GI50,SF-268,> 100 µM (inactive)
same,GI50,BT-549,> 100 µM (inactive)
same,GI50,UACC-257,> 100 µM (inactive)
same,GI50,HCC 2998,> 100 µM (inactive)
same,GI50,OVCAR-4,69.5 µM (inactive)
same,GI50,CCRF-CEM,> 100 µM (inactive)
same,GI50,Hs-578T,> 100 µM (inactive)
same,GI50,HL-60,63.4 µM (inactive)
same,GI50,NCI/ADR-RES,> 100 µM (inactive)
same,GI50,K562,> 100 µM (inactive)
same,GI50,IGROV-1,> 100 µM (inactive)
same,GI50,NCI-H522,> 100 µM (inactive)
same,GI50,MDA-N,> 100 µM (inactive)
same,GI50,Malme-3M,> 100 µM (inactive)
same,GI50,SW-620,> 100 µM (inactive)
same,GI50,UACC-62,> 100 µM (inactive)
same,GI50,SK-MEL-2,> 100 µM (inactive)
same,GI50,CAKI-1,> 100 µM (inactive)
same,GI50,MOLT-4,> 100 µM (inactive)
same,GI50,OVCAR-5,> 100 µM (inactive)
same,GI50,HCT-116,4.49 µM (inactive)
same,GI50,EKVX,> 100 µM (inactive)
same,GI50,T47D,5.9 µM (inactive)
same,GI50,ACHN,> 100 µM (inactive)
same,GI50,RXF 393,54 µM (inactive)
same,GI50,TK-10,> 100 µM (inactive)
same,GI50,SK-MEL-28,> 100 µM (inactive)
same,GI50,M14,> 100 µM (inactive)
same,GI50,SR,> 100 µM (inactive)
same,GI50,KM12,> 100 µM (inactive)
